According to ChEMBL document CHEMBL3885881, “DrugMatrix”:

Species: Rattus norvegicus
Assay: DrugMatrix - Regimen: Daily Repeat
Format: toxicity, organism-based, Sprague-Dawley
Set-up: regimen Daily Repeat, gender Male, age 6-8 weeks
Details: in vivo, po, 100 mg/kg, route oral GAVAGE, dose level Low, vehicle .5 % CMC; for ABSOLUTE BASOPHIL / ABSOLUTE EOSINOPHIL / ABSOLUTE LYMPHOCYTE / ABSOLUTE MONOCYTE / ABSOLUTE SEGMENTED NEUTROPHIL / BASOPHIL / EOSINOPHIL / ERYTHROCYTE COUNT / HEMATOCRIT / HEMOGLOBIN / LEUKOCYTE COUNT / LYMPHOCYTE / MEAN CORPUSCULAR HEMOGLOBIN / MEAN CORPUSCULAR HEMOGLOBIN CONCENTRATION / MEAN CORPUSCULAR VOLUME / MONOCYTE / NEUTROPHIL / NUCLEATED RED BLOOD CELLS / PLATELET COUNT: tissue Blood; for ALANINE AMINOTRANSFERASE / ALBUMIN / ALKALINE PHOSPHATASE / ASPARTATE AMINOTRANSFERASE / BLOOD UREA NITROGEN / CARBON DIOXIDE / CHLORIDE / CHOLESTEROL / CREATINE PHOSPHOKINASE / CREATININE / GLUCOSE / LACTATE DEHYDROGENASE / LIPASE / PHOSPHORUS / POTASSIUM / SODIUM / TOTAL BILIRUBIN / TOTAL PROTEIN / URIC ACID: tissue Plasma

With `Nc1nc2c(c(=O)[nH]1)N(C=O)C(CNc1ccc(C(=O)N[C@@H](CCC(=O)O)C(=O)O)cc1)CN2` (stereo partly specified) [LEUCOVORIN] the “ABSOLUTE BASOPHIL” value (72 h, time 3 day) was 0 CELLS/uL, the “ABSOLUTE EOSINOPHIL” value (72 h, time 3 day) was 0 CELLS/uL and the “ABSOLUTE LYMPHOCYTE” value (72 h, time 3 day) was 14793 CELLS/uL. The “ABSOLUTE MONOCYTE” value (72 h, time 3 day) was 101.33 CELLS/uL, the “ABSOLUTE SEGMENTED NEUTROPHIL” value (72 h, time 3 day) was 1572.33 CELLS/uL and the BASOPHIL (72 h, time 3 day) was 0%. For the same molecule, the EOSINOPHIL (72 h, time 3 day) was 0%, the “ERYTHROCYTE COUNT” value (72 h, time 3 day) was 5.73 x10E6/uL and the HEMATOCRIT (72 h, time 3 day) was 35.97%. The HEMOGLOBIN (72 h, time 3 day) was 14.23 G/DL, the “LEUKOCYTE COUNT” value (72 h, time 3 day) was 16.47 x10E3/uL and the LYMPHOCYTE (72 h, time 3 day) was 89.67%. For the same molecule, the “MEAN CORPUSCULAR HEMOGLOBIN” value (72 h, time 3 day) was 24.9 pg, the “MEAN CORPUSCULAR HEMOGLOBIN CONCENTRATION” value (72 h, time 3 day) was 39.63 G/DL and the “MEAN CORPUSCULAR VOLUME” value (72 h, time 3 day) was 62.83 fL. The MONOCYTE (72 h, time 3 day) was 0.67%, the NEUTROPHIL (72 h, time 3 day) was 9.67% and the “NUCLEATED RED BLOOD CELLS” value (72 h, time 3 day) was 0.33 /100WBC. The “PLATELET COUNT” value (72 h, time 3 day) was 1244.67 x10E3/uL, the “ALANINE AMINOTRANSFERASE” value (72 h, time 3 day) was 62.33 u/L and the ALBUMIN (72 h, time 3 day) was 4.43 G/DL. For the same molecule, the “ALKALINE PHOSPHATASE” value (72 h, time 3 day) was 427.33 u/L, the “ASPARTATE AMINOTRANSFERASE” value (72 h, time 3 day) was 83.67 u/L and the “BLOOD UREA NITROGEN” value (72 h, time 3 day) was 16.33 mg/dL. For the same molecule, the “CARBON DIOXIDE” value (72 h, time 3 day) was 29 mmol/L, the CHLORIDE (72 h, time 3 day) was 98.67 MEQ/L and the CHOLESTEROL (72 h, time 3 day) was 67 mg/dL. The “CREATINE PHOSPHOKINASE” value (72 h, time 3 day) was 289.67 u/L, the CREATININE (72 h, time 3 day) was 0.22 mg/dL and the GLUCOSE (72 h, time 3 day) was 142 mg/dL. For the same molecule, the “LACTATE DEHYDROGENASE” value (72 h, time 3 day) was 152.33 u/L, the LIPASE (72 h, time 3 day) was 9.33 u/L and the PHOSPHORUS (72 h, time 3 day) was 14.03 mg/dL. For the same molecule, the POTASSIUM (72 h, time 3 day) was 7.04 MEQ/L, the SODIUM (72 h, time 3 day) was 146.13 MEQ/L and the “TOTAL BILIRUBIN” value (72 h, time 3 day) was 0.3 mg/dL. For the same molecule, the “TOTAL PROTEIN” value (72 h, time 3 day) was 6.1 G/DL, the “URIC ACID” value (72 h, time 3 day) was 1.77 mg/dL and the “ABSOLUTE BASOPHIL” value (120 h, time 5 day) was 0 CELLS/uL. For the same molecule, the “ABSOLUTE EOSINOPHIL” value (120 h, time 5 day) was 60.33 CELLS/uL, the “ABSOLUTE LYMPHOCYTE” value (120 h, time 5 day) was 13263.33 CELLS/uL and the “ABSOLUTE MONOCYTE” value (120 h, time 5 day) was 23.33 CELLS/uL. For the same molecule, the “ABSOLUTE SEGMENTED NEUTROPHIL” value (120 h, time 5 day) was 1019.67 CELLS/uL, the BASOPHIL (120 h, time 5 day) was 0% and the EOSINOPHIL (120 h, time 5 day) was 0.33%. The “ERYTHROCYTE COUNT” value (120 h, time 5 day) was 5.54 x10E6/uL, the HEMATOCRIT (120 h, time 5 day) was 36.17% and the HEMOGLOBIN (120 h, time 5 day) was 13.53 G/DL. For the same molecule, the “LEUKOCYTE COUNT” value (120 h, time 5 day) was 14.37 x10E3/uL, the LYMPHOCYTE (120 h, time 5 day) was 92.67% and the “MEAN CORPUSCULAR HEMOGLOBIN” value (120 h, time 5 day) was 24.4 pg. For the same molecule, the “MEAN CORPUSCULAR HEMOGLOBIN CONCENTRATION” value (120 h, time 5 day) was 37.4 G/DL, the “MEAN CORPUSCULAR VOLUME” value (120 h, time 5 day) was 65.23 fL and the MONOCYTE (120 h, time 5 day) was 0.33%. The NEUTROPHIL (120 h, time 5 day) was 6.67%, the “NUCLEATED RED BLOOD CELLS” value (120 h, time 5 day) was 1 /100WBC and the “PLATELET COUNT” value (120 h, time 5 day) was 1225.67 x10E3/uL. For the same molecule, the “ALANINE AMINOTRANSFERASE” value (120 h, time 5 day) was 52 u/L, the ALBUMIN (120 h, time 5 day) was 4.3 G/DL and the “ALKALINE PHOSPHATASE” value (120 h, time 5 day) was 311.67 u/L. The “ASPARTATE AMINOTRANSFERASE” value (120 h, time 5 day) was 76 u/L, the “BLOOD UREA NITROGEN” value (120 h, time 5 day) was 15.33 mg/dL and the “CARBON DIOXIDE” value (120 h, time 5 day) was 26 mmol/L. The CHLORIDE (120 h, time 5 day) was 102 MEQ/L, the CHOLESTEROL (120 h, time 5 day) was 57.33 mg/dL and the “CREATINE PHOSPHOKINASE” value (120 h, time 5 day) was 211.67 u/L. The CREATININE (120 h, time 5 day) was 0.21 mg/dL, the GLUCOSE (120 h, time 5 day) was 175.67 mg/dL and the “LACTATE DEHYDROGENASE” value (120 h, time 5 day) was 113.33 u/L. The LIPASE (120 h, time 5 day) was 8.67 u/L, the PHOSPHORUS (120 h, time 5 day) was 12.6 mg/dL and the POTASSIUM (120 h, time 5 day) was 6.61 MEQ/L. The SODIUM (120 h, time 5 day) was 146.23 MEQ/L, the “TOTAL BILIRUBIN” value (120 h, time 5 day) was 0.23 mg/dL and the “TOTAL PROTEIN” value (120 h, time 5 day) was 6.1 G/DL. The “URIC ACID” value (120 h, time 5 day) was 1.7 mg/dL.
